Source: US20240239786A1, “COMPOSITIONS AND METHODS FOR THE TREATMENT AND PREVENTION OF CANCER” (Yale University, priority 2021, published 2024)
pIC50: −log10 of the molar value.

Legend:
Hs 832(C).T cells = assay: Caspase 3/7 assay, Hs 832(C).T; format: cell-based; details: benign ovarian cyst fibroblast cells Hs 832(C).T
Method: Cells were pre-treated with 30 μM DB4 for 1 hr and then treated with various concentrations of olaparib for 72 hr. Cell survival was determined by MTS cytotoxicity assay. Data are means±SD (N=3-4). […] EOB calculation was used to quantify the synergy of the combination of DB4 and various concentrations of olaparib in PEO1 or PEO4 cells as shown in FIG. 8A. EOB>0, synergism; EOB=0, additivity; EOB<0, antagonism. […] Cells were pre-treated with 30 μM DB4-F for 1 hr and then treated with various concentrations of olaparib for 72 hr. Cell survival was determined by MTS cytotoxicity assay. Data are means±SD (N=3-4). […] EOB calculation was used to quantify the synergy of the combination of DB4-F and various concentrations of olaparib in PEO1 or PEO4 cells as shown in FIG. 8B. […] Cell survival was determined by MTS cytotoxicity assay. […] Caspase 3/7 activity was expressed as RLU per μg/μl protein. […] Caspase 3/7 activity was expressed as RLU per μg/μl protein. […] Cells were treated and caspase 3/7 activity was measured as described in FIG. 8G and FIG. 8H.
Furthermore, the effects of DB4 on olaparib-induced apoptosis at 24 hr were evaluated. […]
The assay was performed as described previously (Lin Z P et al., 2018, PLOS One, 13:e0207399). […] Total protein concentration of cell lysates was determined as described above. Caspase 3/7 activity was expressed as luminescence units (RLU) per μg/μL protein for each sample.

HR repair = assay: HR reporter assay in SKOV3-DR-GFP cells; format: cell-based; details: Homo sapiens, SK-OV-3, I-SceI-induced DSB, 48 hr, read-out: IC50 for inhibiting HR repair
From the text: Cells were transfected with the ISceI-expressing plasmid and then treated various concentrations of DB4 for 48 hr. Cells were harvested, stained with 7-AAD, and analyzed by flow cytometry for GFP-positive cells indicative of HR repair activity. […] Cells were transfected with the ISceI-expressing plasmid and treated with various concentrations of DB4. Cells were harvested, stained with 7-AAD, and stained, and analyzed by flow cytometry for GFP-positive cells indicative of NHEJ activity. Data are means±SD (N=3). *, p<0.05; **, p<0.01, compared with the 0 μM control of ISceI-transected cells. […] Cells were also scored for nuclei containing equal or more than 10 distinct Rad51 foci to determine the percentage of cells positive for Rad51 foci. […] Protein was assessed by western blot analysis for the levels of γH2AX, p-H1, cyclin A2, p-CDK1/2, and HSC70. […] The band density of γH2AX indicative of DSBs was quantified by densitometry. […]
The ability of DB4 to inhibit endonuclease-induced DSB repair of reporter genes in SKOV3 cells was evaluated. […]
SKOV3-DR-GFP cells were established as described previously (Lin Z P et al., 2014, Molecular Cancer Res, 12:381-393). […] Cells were then trypsinized, stained with 7-AAD, and analyzed for the percentage of GFP-positive and […] cells by flow cytometry using an LSR II flow cytometer (BD Biosciences) and FlowJo software (Tree Star; Ashland, OR). […]

## C=CCn1c(SCc2cccc(Cl)c2)nnc1C1CCN(Cc2nc3ccccc3s2)CC1 [DB4, 2-[(4-{4-allyl-5-[(3-chlorobenzyl)thio]-4H-1,2,4-triazol-3-yl}-1-piperidinyl)methyl]-1,3-benzothiazole]
Hs 832(C).T cells
  effect on apoptotic effects of olaparib (caspase 3/7): did not enhance the apoptotic effects of olaparib
HR repair
  pIC50: 5.27
